Experimental data taken from patent US10076522B2, “Systems and methods for treating bacterial infection” (priority 2016, dated 2018).
“Also recorded” adds a separate entry of the source.

Legend:
[1] = target: T1, hERG-mediated potassium current (Homo sapiens, UniProt Q12809); assay: Inhibition of hERG-mediated potassium current in transfected CHO cells; assay type: cell-based; conditions: reversible inhibition
T1 construct: expressed in transfected cells; host or cells: CHO (Chinese Hamster Ovary) cells

SCNSA sodium channel = SCNSA sodium channel (Homo sapiens, UniProt Q14524); assay: Sodium channel inhibition
[2] = Single-dose ECG study in healthy human volunteers (1.6 and 3.2 mg/kg over 30 minutes); assay type: in vivo
Procedure: Based on this, a single-dose ECG-study was conducted in healthy human volunteers, where 1.6 mg/kg and 3.2 mg/kg iclaprim was infused over 30 minutes. […] Maximal increases coincided with Cmax levels and were rapidly reversible. Weight-based dosing with 1.6 mg/kg was thus assessed as acceptable for clinical purposes, whereas weight-based dosing at 3.2 mg/kg was associated with relevant QTc prolongations (>60 msec) and nonspecific T-wave alterations, and was not used for further clinical studies.

clinical [3] = conditions: human, in vivo, iv, 0.8 mg/kg, mean Cmax
Procedure: (§1) For example, the PK profile of 0.8 mg/kg iclaprim administered by IV was investigated in 8 subjects with mild to moderate obesity (body mass index or “BMI” 30-40) and in 8 subjects with severe obesity (BMI>40). […] Linear regression analysis indicated a strong linear relationship between AUC (and Cmax) and BMI. Thus it was clear that the body composition of the subject affected the pharmacokinetics of IV administered iclaprim, with a greater percentage of body fat causing an increase in AUC and Cmax. […] Thus there is a risk of overdosing subjects with moderate hepatic impairment, which can be mitigated by reducing the IV iclaprim dose by about 50%.

[4] = PK of IV iclaprim in subjects with moderate hepatic impairment; assay type: in vivo, human; conditions: moderate hepatic impairment (Child-Pugh grade B)
Procedure: as §1

[5] = human, in vivo
cSSSIs = assay: Phase III ASSIST trials, efficacy in cSSSI; assay type: in vivo, human; conditions: 0.8 mg/kg over 0.5 hr q12h IV
Excerpt: Without wishing to be bound by a particular theory, one observed disadvantage of the weight-based dosing in the previous Phase III studies is that the post-antibiotic effect achieved by the weight-based doses was not enough to sustain the T>MIC between doses. Sufficient efficacy might be achieved by increasing the amount of iclaprim administered to the subject. However, as discussed above, simply increasing the weight-based dose of iclaprim risks causing QTc prolongation.

[6] = Phase III REVIVE-1 study, safety (adverse events)
Procedure: All subjects who received any study drug were evaluated for safety on the basis of medical history and physical examinations, reports of clinical AEs, routine electrocardiography, and clinically significant findings from routine liver function tests, serum chemistry, hematology, coagulation, and urinalysis (UA) tests. All adverse events were recorded throughout the study period, up to and including the LFU phone call. While blinded to treatment assignment, the investigator categorized the severity of each AE and the potential for relationship to study drug. Serious AEs (SAEs) include those that were life threatening, led to prolongation of the existing hospitalization, a congenital anomaly/birth defect, or caused persistent or significant disability, incapacity, or death. Treatment-emergent AEs (TEAEs) were defined as those that start or worsen in severity during or after the first dose of study drug administration through end of study.
Safety evaluation included incidence of TEAEs, laboratory test results (including liver function tests), vital signs, ECG results, and physical examination findings. All summaries of safety data was based on the safety population (all treated subjects).
The AE summary tables included subject (patient) counts. Therefore, if a subject experienced more than one episode of a particular AE, the subject was counted only once for that event. If a subject had more than one AE that was coded to the same preferred term, the subject was counted only once for that preferred term. Similarly, if a subject had more than one AE within a SOC, the subject was counted only once in that SOC.

[7] = test system: isolated rabbit Purkinje fibers
clinical [8] = conditions: human, in vivo
clinical [9] = conditions: human, in vivo, 1 mg/kg
[10] = Exposure to iclaprim in Phase I studies; conditions: human, plasma, intravenous, HMR 01-014, Multiple Dose Q12H × 9 days, arithmetic mean
[11] = 13-week toxicology study in the rat, AUC at NOAEL; conditions: in vivo
[12] = 13-week toxicology study in the marmoset, AUC at NOAEL; conditions: monkey, in vivo
[13] = 150 mg, 150 mg/EtOH & NS (20 min)

T1 sequence (Q12809 whole entry): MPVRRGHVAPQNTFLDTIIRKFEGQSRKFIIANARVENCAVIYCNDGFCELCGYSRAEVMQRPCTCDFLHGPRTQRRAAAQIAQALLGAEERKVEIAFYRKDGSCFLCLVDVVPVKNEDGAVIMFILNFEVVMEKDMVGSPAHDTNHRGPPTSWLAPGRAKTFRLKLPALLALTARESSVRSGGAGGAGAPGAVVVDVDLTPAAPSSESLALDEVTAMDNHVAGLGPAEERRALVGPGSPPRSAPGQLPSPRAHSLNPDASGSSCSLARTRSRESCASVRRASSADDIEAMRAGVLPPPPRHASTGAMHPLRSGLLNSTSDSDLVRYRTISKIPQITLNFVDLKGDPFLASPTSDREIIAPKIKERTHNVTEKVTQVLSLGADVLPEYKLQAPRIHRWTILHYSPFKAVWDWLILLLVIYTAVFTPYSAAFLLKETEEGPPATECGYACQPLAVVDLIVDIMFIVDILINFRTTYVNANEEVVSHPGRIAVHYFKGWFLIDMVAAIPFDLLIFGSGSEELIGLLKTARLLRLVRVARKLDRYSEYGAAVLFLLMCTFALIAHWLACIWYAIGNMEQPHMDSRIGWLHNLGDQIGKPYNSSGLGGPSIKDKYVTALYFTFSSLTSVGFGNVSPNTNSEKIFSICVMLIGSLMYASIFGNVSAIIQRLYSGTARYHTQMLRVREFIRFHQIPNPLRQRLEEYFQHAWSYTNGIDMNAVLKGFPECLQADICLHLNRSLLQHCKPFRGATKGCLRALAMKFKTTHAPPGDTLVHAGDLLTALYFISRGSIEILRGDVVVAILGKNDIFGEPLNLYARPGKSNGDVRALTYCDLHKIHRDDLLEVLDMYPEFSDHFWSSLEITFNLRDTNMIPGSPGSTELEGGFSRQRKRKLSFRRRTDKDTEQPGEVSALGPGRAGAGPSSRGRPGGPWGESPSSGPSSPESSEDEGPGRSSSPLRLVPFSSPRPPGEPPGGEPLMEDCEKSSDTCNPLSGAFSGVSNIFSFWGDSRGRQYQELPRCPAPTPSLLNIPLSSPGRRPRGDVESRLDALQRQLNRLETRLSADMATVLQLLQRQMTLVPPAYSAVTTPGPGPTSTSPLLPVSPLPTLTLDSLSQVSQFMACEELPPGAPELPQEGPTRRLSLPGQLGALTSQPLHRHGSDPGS
Chain of SCNSA sodium channel (Q14524 whole entry): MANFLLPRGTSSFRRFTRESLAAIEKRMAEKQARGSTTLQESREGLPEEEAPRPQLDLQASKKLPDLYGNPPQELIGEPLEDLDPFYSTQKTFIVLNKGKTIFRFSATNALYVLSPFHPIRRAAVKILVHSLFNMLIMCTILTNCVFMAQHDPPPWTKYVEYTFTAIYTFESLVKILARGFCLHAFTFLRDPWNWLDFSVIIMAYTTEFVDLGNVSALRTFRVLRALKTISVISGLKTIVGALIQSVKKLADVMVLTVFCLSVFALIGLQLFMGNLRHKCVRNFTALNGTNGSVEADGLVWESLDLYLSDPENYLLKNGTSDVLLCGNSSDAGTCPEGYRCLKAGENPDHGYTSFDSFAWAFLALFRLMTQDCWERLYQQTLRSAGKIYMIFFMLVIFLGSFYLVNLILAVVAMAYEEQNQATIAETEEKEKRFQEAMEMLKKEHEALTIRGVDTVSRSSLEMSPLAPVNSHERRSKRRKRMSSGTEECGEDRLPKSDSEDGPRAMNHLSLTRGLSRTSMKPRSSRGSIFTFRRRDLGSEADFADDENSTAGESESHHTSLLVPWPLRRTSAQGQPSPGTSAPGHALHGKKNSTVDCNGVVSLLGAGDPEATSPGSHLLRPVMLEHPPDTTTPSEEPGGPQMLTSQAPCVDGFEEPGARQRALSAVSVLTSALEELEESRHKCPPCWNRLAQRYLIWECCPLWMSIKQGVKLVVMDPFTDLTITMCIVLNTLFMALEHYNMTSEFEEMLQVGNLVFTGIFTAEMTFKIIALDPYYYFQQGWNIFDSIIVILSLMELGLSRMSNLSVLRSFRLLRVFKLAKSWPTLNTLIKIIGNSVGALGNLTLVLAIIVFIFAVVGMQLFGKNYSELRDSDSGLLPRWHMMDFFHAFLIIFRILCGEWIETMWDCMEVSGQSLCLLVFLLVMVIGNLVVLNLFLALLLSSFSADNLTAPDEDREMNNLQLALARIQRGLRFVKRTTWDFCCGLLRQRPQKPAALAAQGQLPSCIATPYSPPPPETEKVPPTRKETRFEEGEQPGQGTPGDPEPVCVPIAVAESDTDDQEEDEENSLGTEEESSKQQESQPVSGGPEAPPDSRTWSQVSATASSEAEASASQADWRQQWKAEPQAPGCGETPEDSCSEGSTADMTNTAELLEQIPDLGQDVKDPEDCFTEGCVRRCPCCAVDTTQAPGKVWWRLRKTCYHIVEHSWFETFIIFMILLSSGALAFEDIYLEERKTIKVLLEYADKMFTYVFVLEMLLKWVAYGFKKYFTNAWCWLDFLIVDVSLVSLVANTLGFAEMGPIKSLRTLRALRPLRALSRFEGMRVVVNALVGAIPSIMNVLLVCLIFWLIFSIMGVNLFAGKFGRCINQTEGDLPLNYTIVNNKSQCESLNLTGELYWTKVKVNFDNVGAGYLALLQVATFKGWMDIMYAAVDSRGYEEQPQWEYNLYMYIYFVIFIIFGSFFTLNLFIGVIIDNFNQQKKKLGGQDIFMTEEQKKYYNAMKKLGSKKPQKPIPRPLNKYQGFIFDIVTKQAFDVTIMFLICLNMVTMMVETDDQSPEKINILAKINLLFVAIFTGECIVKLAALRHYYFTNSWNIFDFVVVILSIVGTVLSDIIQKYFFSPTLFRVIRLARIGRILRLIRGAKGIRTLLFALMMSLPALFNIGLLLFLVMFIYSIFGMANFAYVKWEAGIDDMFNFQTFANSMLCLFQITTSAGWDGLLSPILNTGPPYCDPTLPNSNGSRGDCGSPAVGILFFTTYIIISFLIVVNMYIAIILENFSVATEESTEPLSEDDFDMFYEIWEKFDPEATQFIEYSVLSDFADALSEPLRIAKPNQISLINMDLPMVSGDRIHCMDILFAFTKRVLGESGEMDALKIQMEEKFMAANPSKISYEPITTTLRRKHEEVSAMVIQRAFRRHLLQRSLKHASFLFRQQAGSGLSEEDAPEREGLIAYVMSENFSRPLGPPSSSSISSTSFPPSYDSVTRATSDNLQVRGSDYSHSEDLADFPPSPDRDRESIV

**Q.** Which IC50 [1] does the source give for COc1cc(Cc2cnc(N)nc2N)c2c(c1OC)OC(C1CC1)C=C2 (racemic) [Iclaprim] here?
**A.** Its IC50 is 0.9 µM.

**Q.** What about the IC50 (SCNSA sodium channel) of the same molecule?
**A.** Its IC50 is 95 µM.

**Q.** What about the QTc prolongations ([2]; 3.2 mg/kg infused over 30 minutes) of the same molecule?
**A.** Its QTc prolongations is greater than 60 ms.

**Q.** And the “effect on QTc interval” value ([2]; 1.6 and 3.2 mg/kg infused over 30 minutes, dose-dependent)?
**A.** Its value is “prolonged the QTc interval”.

**Q.** And the Cmax (clinical [3])?
**A.** Its Cmax is 854 ng/mL.

**Q.** What about the “increase in AUC” value [4] of the same molecule?
**A.** The value was 2.5 fold.

**Q.** And the “increase in Cmax” value [4]?
**A.** Its value is 1.4 fold.

**Q.** What about the “adverse events related to QTc prolongation” value [5] of the same molecule?
**A.** The value was 4 cases.

**Q.** What about the “efficacy, non-inferiority (−10% margin) to linezolid” value (cSSSIs) of the same molecule?
**A.** Its value is “did not meet the FDA criteria of non-inferiority to linezolid; also recorded: failed to show efficacy”.

**Q.** And the “Deaths, number of subjects” value ([6]; REVIVE-1 safety population)?
**A.** The value was 0.

**Q.** And the “Deaths, percent of subjects” value ([6]; REVIVE-1 safety population)?
**A.** The value was 0.0%.

**Q.** And the “Study drug related TEAEs, number of subjects” value ([6]; human, in vivo)?
**A.** The value was 57.

**Q.** What about the “Study drug related TEAEs, percent of subjects” value ([6]; human, in vivo) of the same molecule?
**A.** Its value is 19.5%.

**Q.** And the “TEAE-related SAEs (Serious AEs), number of subjects” value ([6]; human, in vivo)?
**A.** Its value is 8.

**Q.** What about the “TEAE-related SAEs (Serious AEs), percent of subjects” value ([6]; human, in vivo) of the same molecule?
**A.** Its value is 2.7%.

**Q.** And the “TEAEs (Treatment Emergent Adverse Events), number of subjects” value ([6]; human, in vivo)?
**A.** The value was 151.

**Q.** And the “TEAEs (Treatment Emergent Adverse Events), percent of subjects” value ([6]; human, in vivo)?
**A.** Its value is 51.5%.

**Q.** And the “TEAEs leading to discontinuation of study drug, number of subjects” value ([6]; human, in vivo)?
**A.** Its value is 8.

**Q.** What about the “TEAEs leading to discontinuation of study drug, percent of subjects” value ([6]; human, in vivo) of the same molecule?
**A.** Its value is 2.7%.

**Q.** And the “concentration above which action potential duration was increased” value [7]?
**A.** Its value is “above 1 μM”.

**Q.** And the AUC (clinical [8]; 0.25 mg/kg)?
**A.** The AUC was 598 ± 270 ng·h/mL.

**Q.** And the Cmax (clinical [8]; 0.25 mg/kg)?
**A.** The Cmax was 686 ± 279 ng/mL.

**Q.** And the AUC (clinical [8]; 0.5 mg/kg)?
**A.** The AUC was 996 ng·h/mL.

**Q.** And the AUC (clinical [8]; 1 mg/kg)?
**A.** The AUC was 1980 ng·h/mL.

**Q.** And the AUC (clinical [8]; 2 mg/kg)?
**A.** The AUC was 4040 ng·h/mL.

**Q.** And the AUC (clinical [8]; 4 mg/kg)?
**A.** Its AUC is 6810 ng·h/mL.

**Q.** What about the Cmax (clinical [8]; 4 mg/kg) of the same molecule?
**A.** Its Cmax is 4020 ng/mL.

**Q.** And the Cmax (clinical [9])?
**A.** Its Cmax is 792 ng/mL.

**Q.** And the AUC ([10]; 75 mg, 75 mg/10% PG (20 min))?
**A.** The AUC was 1660 ng·h/mL.

**Q.** And the Cmax ([10]; 75 mg, 75 mg/10% PG (20 min))?
**A.** The Cmax was 1290 ng/mL.

**Q.** And the AUC ([10]; 150 mg, 150 mg/10% PG (20 min))?
**A.** Its AUC is 3600 ng·h/mL.

**Q.** What about the AUC [10, 13] of the same molecule?
**A.** Its AUC is 3220 ng·h/mL.

**Q.** What about the Cmax ([10]; 150 mg, 150 mg/10% PG (20 min)) of the same molecule?
**A.** Its Cmax is 2350 ng/mL.

**Q.** And the Cmax [10, 13]?
**A.** The Cmax was 1870 ng/mL.

**Q.** And the AUC at 13 week ([11]; female)?
**A.** The AUC at 13 week was 20400 ng·h/mL.

**Q.** What about the AUC at 13 week ([11]; male) of the same molecule?
**A.** Its AUC at 13 week is 7260 ng·h/mL.

**Q.** What about the AUC at 13 week ([12]; female) of the same molecule?
**A.** Its AUC at 13 week is 26600 ng·h/mL.

**Q.** And the AUC at 13 week ([12]; male)?
**A.** Its AUC at 13 week is 26900 ng·h/mL.
